Our source for the IC50 values is patent US11827628B2, “Compositions and methods for inhibition of the JAK pathway” (Rigel Pharmaceuticals, Inc., priority 2005, dated 2023).

Read-outs that look alike come from different tables or passages of the source.

Assay [1] concerns IL-4 stimulated expression of CD23 in human Ramos B cells (JAK-1 and JAK-3). Briefly: Assay for Ramos B-Cell Line Stimulated with IL-4 (CD23 upregulation, FACS). To be noted: Ramos B-cell line stimulated with IL-4; CD23 expression by FACS; read-out: IC50, Example 41. The assay is classed as cell-based. The gist of the method:
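Human Ramos B cells in RPMI with 5% serum were pre-incubated with compound or DMSO for 1 h at 37 °C, then stimulated with IL-4 at a final 50 units/mL for 20-24 h. CD23 upregulation was measured by anti-CD23-PE staining and flow cytometry, and IC50 values were calculated.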

For assay [2], the system named is up-regulation of ICAM-1 (CD54) by IFNγ in U937 human monocytic cells. Briefly: U937 IFNγ ICAM1 FACS Assay. The assay is classed as cell-based. The note with it: ICAM-1 expression by FACS, read-out: IC50, Example 44. A digest of the protocol: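 Readout was the geometric-mean APC anti-ICAM-1 signal by FACS on live U937 monocytic cells, with % live cells also recorded. Cells were exposed to compounds (8 points, 3-fold dilutions, duplicates) for 30 min at 37 °C before 18–24 h of IFNγ stimulation. EC50 values were computed from the dose curve.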
On the technique in general: In flow cytometry, cells or beads pass a laser one at a time.

[3] abbreviates: U937 cells stimulated with IFNγ.

For orientation: IC50 means the point on the concentration scale where inhibition reaches its midpoint. On to `COc1cc(Nc2ncc(F)c(Nc3ccc(CC#N)cc3)n2)ccc1S(N)(=O)=O` [III-9, N2-(4-Aminosulfonyl-3-methoxy)phenyl-N4-(4-cyanomethyl)phenyl-5-fluoro-2,4-pyrimidinediamine], for which the IC50 in assay [1] turned out to be 215 nM; in assay [2] (setting [3]), 6980 nM.
Turning to `N#CCc1ccc(Nc2nc(Nc3ccc(F)c(S(N)(=O)=O)c3)ncc2F)cc1` [III-10, N2-(3-Aminosulfonyl-4-fluoro)phenyl-N4-(4-cyanomethyl)phenyl-5-fluoro-2,4-pyrimidinediamine], the IC50 in assay [1] was 225 nM; in assay [2] (setting [3]), 3520 nM.
`Cc1ccc(Nc2ncc(C)c(Nc3ccc(CCC#N)cc3)n2)cc1S(N)(=O)=O` [III-11]: the IC50 came to 64.2 nM in assay [1] and 168 nM in assay [2] (setting [3]).
Regarding `N#CCCc1ccc(Nc2nc(Nc3cccc(S(N)(=O)=O)c3)ncc2F)cc1` [III-14, N2-(3-aminosulfonylphenyl)-N4-[4-(cyanoethylene)phenyl]-5-fluoro-2,4-pyrimidinediamine], the IC50 is 140 nM in assay [1] and 585 nM in assay [2] (setting [3]).
Take `Cc1ccc(Nc2ncc(F)c(Nc3ccc(CCC#N)cc3)n2)cc1S(N)(=O)=O` [III-15, N2-(3-Aminosulfonyl-4-methylphenyl)-N4-[4-(cyanoethylene)phenyl]-5-fluoro-2,4-pyrimidinediamine]: the IC50 was 76 nM in assay [1] and 553 nM in assay [2] (setting [3]).
With `N#CCCc1ccc(Nc2nc(Nc3ccc(F)c(S(N)(=O)=O)c3)ncc2F)cc1` [III-16, N2-(3-Aminosulfonyl-4-fluorophenyl)-N4-[4-(cyanoethylene)phenyl]-5-fluoro-2,4-pyrimidinediamine], the IC50 came to 273 nM in assay [1] and 1800 nM in assay [2] (setting [3]).
On to `Cc1cnc(Nc2ccc(S(N)(=O)=O)cc2)nc1Nc1ccc(CCC#N)cc1` [III-27, N2-(4-Aminosulfonylphenyl)-N4-(4-cyanoethylenephenyl)-5-methyl-2,4-pyrimidinediamine], for which the values for the IC50 in assay [1] and in assay [2] (setting [3]) were 58.3 nM and 257 nM, respectively.
For the molecule `N#CCCc1ccc(Nc2nc(Nc3cccc(S(N)(=O)=O)c3)ncc2F)cc1C(F)(F)F` [III-31, N4-(4-Cyanoethylene-3-trifluoromethylphenyl)-5-fluoro-N2-(3-aminosulfonylphenyl)-2,4-pyrimidinediamine], the IC50 in assay [1] was 95.4 nM; in assay [2] (setting [3]), 1700 nM.
On the same counts, the results for `NS(=O)(=O)c1cccc(Nc2ncc(F)c(Nc3cccc(CNC(=O)C4CC4)c3)n2)c1` [III-39, N2-(3-aminosulfonyl)phenyl-N4-(3-cyclopropylcarbonylaminomethyl)phenyl-5-fluoro-2,4-pyrimidinediamine] are 117 nM and 1440 nM.
On the same counts, the results for `Cc1ccc(Nc2ncc(F)c(Nc3cccc(CNC(=O)C4CC4)c3)n2)cc1S(N)(=O)=O` [III-40, N2-(3-aminosulfonyl-4-methyl)phenyl-N4-(3-cyclopropylcarbonylaminomethyl)phenyl-5-fluoro-2,4-pyrimidinediamine] are 134 nM and 1120 nM.
Take `NS(=O)(=O)c1cccc(Nc2ncc(F)c(Nc3ccc(Cc4ccncc4)cc3)n2)c1` [III-70, N2-(3-Aminosulfonylphenyl)-5-fluoro-N4-[4-(4-pyridinylmethyl)phenyl]-2,4-pyrimidinediamine]: the 50% inhibitory concentration (IC50) in assay [1] stood at 64.5 nM; in assay [2] (Homo sapiens, U-937, U937 cells stimulated with IFNγ) it was 1650 nM.
Turning to “N2-(3-Aminocarbonyl-5-methylphenyl)-5-fluoro-N2-[4-(1-ethylpyrazol-5-yl)amidophenyl)-2,4-pyrimidinediamine [II-20]”, the IC50 in assay [1] came out at 428 nM; in assay [2] (setting [3]) it was 11500 nM.
With “N2-(3-Aminocarbonyl-5-methylphenyl)-5-fluoro-N2-[4-(1-methylpyrazol-5-yl)amidophenyl)-2,4-pyrimidinediamine [II-21]”, the IC50 is 698 nM in assay [1] and 41700 nM in assay [2] (setting [3]).
On the same counts, the results for “N2-[3-Aminosulfonyl-4-(4-methylpiperazin-1-yl)phenyl]-5-fluoro-N4-[2-fluoro-4-(5-methylisoxazol-3-yl)methyleneoxyphenyl]-2,4-pyrimidinediamine [Compound I-251]” are 167 nM and 1090 nM.
